Test results published in patent US20250339399A1, “SUPRAMOLECULAR SELF-ASSEMBLY SYSTEM” (Beijing Creatron Institute of Pharmaceutical Research Co., …, priority 2022, published 2025).
Values belong to the compound of their own block, whether it stands above or below them.

Key:
[1] = cited from earlier work; for Log P: prost derivatives, Table 31 (relevant information)
[2] = prost derivatives; 37° C.; cited from earlier work
[3] = Comparative Example 3: systems with 10% (W/V) natural building block; format: physicochemical; details: 6 h
Procedure: An initial medium of each above target molecule was used to prepare a solution containing 10% Rubusoside A (313) or 10% (W/V) Mogroside V (319), the solution was sonicated at 37° C. to prepare a solution containing about 100 mg/mL building block 313 or 319 per 1 mL of the initial medium, the clear medium containing the natural building blocks was incubated in a 37° C. constant temperature air bath shaker for 1 hour, and subsequent operations and sample detection followed the steps of Comparative Examples 1 and 2. Considering that each natural building block had different UV absorption and was added at a high concentration, the more specific HPLC method was still used for quantitative determination on the solution concentration of each guest molecule, […].

[4] = Binary supramolecular self-assembly systems of polymer and target: guest concentration over incubation time (Comparative Example 2); format: physicochemical
Procedure: Experiments were conducted according to the steps in Comparative Example 1, and quantitative analysis was carried out using the analytical method for each target to investigate the regulation ability […] stacking.

[5] = Binary (carrier), ternary and quaternary supramolecular self-assembly systems of polymer, carrier building block and target: guest concentration over incubation time (Examples 1-56); format: physicochemical
Outline: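 Targets were incubated at 37 °C in pH 2.0–7.4 buffers with 0.5% polymer alone or with carrier building blocks, after 0.5 h sonication for ternary systems, and shaken at 200 rpm. Samples at 0.5–6 h were centrifuged and diluted ≥10-fold, and dissolved target was quantified by HPLC; surfactant was added if needed.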

[6] = Guest molecule concentration after incubation in initial medium without polymer (Comparative Example 1); format: physicochemical; details: 37° C.
Outline: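 Dissolved guest content measured by HPLC of centrifuged supernatants (37° C., 13000 rpm, 5 min) sampled at 0.5 h, 3 h and 6 h. Incubation was polymer-free at 37° C.±0.5° C. in buffers of pH 2.0-7.4; nominal loading was set by maximum clinical dose.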

[7] = 10% (W/V) Rubusoside A as building block; according to US2012/0121696A1; cited from earlier work
[8] = binary system with 0.5% polymer 101, incubation 0.5 h
[9] = binary system with 0.5% polymer 101, incubation 3 h
[10] = binary system with 0.5% polymer 101, incubation 6 h
[11] = binary system with 0.5% polymer 102, incubation 0.5 h
[12] = binary system with 0.5% polymer 102, incubation 3 h
[13] = binary system with 0.5% polymer 102, incubation 6 h
[14] = binary system with 0.5% polymer 103, incubation 0.5 h
[15] = binary system with 0.5% polymer 103, incubation 3 h
[16] = binary system with 0.5% polymer 103, incubation 6 h
[17] = binary system with 0.5% polymer 106, incubation 0.5 h
[18] = binary system with 0.5% polymer 106, incubation 3 h
[19] = binary system with 0.5% polymer 106, incubation 6 h
[20] = binary system with 0.5% polymer 107, incubation 0.5 h
[21] = binary system with 0.5% polymer 107, incubation 3 h
[22] = binary system with 0.5% polymer 107, incubation 6 h
[23] = binary system with 0.5% polymer 110, incubation 0.5 h
[24] = binary system with 0.5% polymer 110, incubation 3 h
[25] = binary system with 0.5% polymer 110, incubation 6 h
[26] = ternary: 0.25% 102H + 0.1% 319, 6 h
[27] = ternary: 0.25% 102H + 1.0% 319, 6 h
[28] = ternary: 0.25% 102M + 0.5% 302, 6 h
[29] = ternary: 0.25% 102L + 0.1% 313, 6 h
[30] = ternary: 0.25% 102L + 1.0% 313, 6 h

SMILES: CC(C)OC(=O)CCC/C=C\C[C@@H]1[C@@H](CC[C@@H](O)CCc2ccccc2)[C@H](O)C[C@@H]1O [Latanoprost, latanoprost]
Log P [1]: 3.98
Intrinsic solubility [2]: 30 µg/mL

Concentration of guest molecule in solution ([3]; Comparative Example 3: 10% 319): 8.3 µg/mL
Concentration of the target in the solution measured after different incubation time [4, 8]: 219.7 µg/mL
Concentration of the target in the solution measured after different incubation time [4, 9]: 120.1 µg/mL
Concentration of the target in the solution measured after different incubation time [4, 10]: 50.3 µg/mL
Concentration of the target in the solution measured after different incubation time [4, 11]: 747.8 µg/mL
Concentration of the target in the solution measured after different incubation time [4, 12]: 643.4 µg/mL
Concentration of the target in the solution measured after different incubation time [4, 13]: 576.7 µg/mL
Concentration of the target in the solution measured after different incubation time [4, 14]: 76.1 µg/mL
Concentration of the target in the solution measured after different incubation time [4, 15]: 52.9 µg/mL
Concentration of the target in the solution measured after different incubation time [4, 16]: 32.7 µg/mL
Concentration of the target in the solution measured after different incubation time [4, 17]: 102.6 µg/mL
Concentration of the target in the solution measured after different incubation time [4, 18]: 118.1 µg/mL
Concentration of the target in the solution measured after different incubation time [4, 19]: 90.3 µg/mL
Concentration of the target in the solution measured after different incubation time [4, 20]: 107.4 µg/mL
Concentration of the target in the solution measured after different incubation time [4, 21]: 8.3 µg/mL
Concentration of the target in the solution measured after different incubation time [4, 22]: 7.7 µg/mL
Concentration of the target in the solution measured after different incubation time [4, 23]: 6.0 µg/mL
Concentration of the target in the solution measured after different incubation time [4, 24]: 8.3 µg/mL
Concentration of the target in the solution measured after different incubation time [4, 25]: 10.0 µg/mL
Concentration of guest molecule in solution ([4]; binary: 0.25% 102M, 2 h): 962.6 µg/mL
Concentration of guest molecule in solution ([4]; binary: 0.25% 102M, 6 h): 6.4 µg/mL
Concentration of guest molecule in solution ([4]; binary: 0.5% 102M, 6 h): 576.6 µg/mL
Times that of the initial medium ([4]; binary: 0.5% 102M, 6 h): 67 times
Concentration of guest molecule in solution ([5]; quaternary: 0.25% 204 (102M+103E5) + 302, 6 h): 34.2 µg/mL
Concentration of guest molecule in solution [5, 26]: 676.6 µg/mL
Times that in Comparative Example 3 [5, 26]: 81.5 times
Concentration of guest molecule in solution [5, 27]: 516.3 µg/mL
Times that in Comparative Example 3 [5, 27]: 62.2 times
Concentration of guest molecule in solution ([5]; ternary: 0.25% 102M + 0.05% 314, 0.5 h): 140.0 µg/mL
Concentration of guest molecule in solution ([5]; ternary: 0.25% 102M + 0.05% 314, 6 h): 5.2 µg/mL
Concentration of guest molecule in solution ([5]; ternary: 0.25% 102M + 0.1% 314, 4 h): 1036.7 µg/mL
Concentration of guest molecule in solution [5, 28]: 862.1 µg/mL
Times that of the initial medium [5, 28]: 100.6 times
Concentration of guest molecule in solution ([5]; ternary: 0.25% 102M + 1.0% or 1.5% 314, 0.5 h-4.0 h): ~1000 µg/mL
Concentration of guest molecule in solution ([5]; ternary: 0.25% 102M + 1.0% or 1.5% 314, 6 h): 900 µg/mL
Concentration of guest molecule in solution ([5]; ternary: 102H + 313, 4 h): about 609.8 μg/mL
Concentration of guest molecule in solution ([5]; ternary: 102H + 317, 4 h): ~638.6 µg/mL
Concentration of guest molecule measured after different incubated time ([6]; 0.5 h, pH 6.8 phosphate buffer): 1.7 µg/mL
Concentration of guest molecule measured after different incubated time ([6]; 3 h, pH 6.8 phosphate buffer): 9.4 µg/mL
Concentration of guest molecule measured after different incubated time ([6]; 6 h, pH 6.8 phosphate buffer): 8.6 µg/mL
SMILES: COc1cc(/C=C/C(=O)CC(=O)/C=C/c2ccc(O)c(OC)c2)ccc1O [Curcumin]
LogP [1]: 4.12

Concentration of guest molecule in solution ([3]; Comparative Example 3: 10% 313): 31.3 µg/mL
Concentration of the target in the solution measured after different incubation time [4, 8]: 224.3 µg/mL
Concentration of the target in the solution measured after different incubation time [4, 9]: 62.2 µg/mL
Concentration of the target in the solution measured after different incubation time [4, 10]: 54.4 µg/mL
Concentration of the target in the solution measured after different incubation time [4, 11]: 19.6 µg/mL
Concentration of the target in the solution measured after different incubation time [4, 12]: 11.1 µg/mL
Concentration of the target in the solution measured after different incubation time [4, 13]: 10.6 µg/mL
Concentration of the target in the solution measured after different incubation time [4, 14]: 31.1 µg/mL
Concentration of the target in the solution measured after different incubation time [4, 15]: 32.2 µg/mL
Concentration of the target in the solution measured after different incubation time [4, 16]: 31.9 µg/mL
Concentration of the target in the solution measured after different incubation time [4, 17]: 49.0 µg/mL
Concentration of the target in the solution measured after different incubation time [4, 18]: 30.1 µg/mL
Concentration of the target in the solution measured after different incubation time [4, 19]: 26.3 µg/mL
Concentration of the target in the solution measured after different incubation time [4, 20]: 36.4 µg/mL
Concentration of the target in the solution measured after different incubation time [4, 21]: 35.4 µg/mL
Concentration of the target in the solution measured after different incubation time [4, 22]: 35.3 µg/mL
Concentration of the target in the solution measured after different incubation time [4, 23]: 6.4 µg/mL
Concentration of the target in the solution measured after different incubation time [4, 24]: 11.1 µg/mL
Concentration of the target in the solution measured after different incubation time [4, 25]: 4.8 µg/mL
Concentration of guest molecule in solution [5, 29]: 988.1 µg/mL
Times that in Comparative Example 3 [5, 29]: 31.9 times
Concentration of guest molecule in solution [5, 30]: 352.3 µg/mL
Times that in Comparative Example 3 [5, 30]: 11.4 times
Concentration of guest molecule measured after different incubated time ([6]; 0.5 h, pH 2.0 hydrochloric acid): 20.5 µg/mL
Concentration of guest molecule measured after different incubated time ([6]; 3 h, pH 2.0 hydrochloric acid): 5.4 µg/mL
Concentration of guest molecule measured after different incubated time ([6]; 6 h, pH 2.0 hydrochloric acid): 4.2 µg/mL
SMILES: Cc1ccc(-c2cc(C(F)(F)F)nn2-c2ccc(S(N)(=O)=O)cc2)cc1 [Celecoxib]
Concentration in the solution [7]: 109 µg/mL

SMILES: CCNC(=O)CCC/C=C\C[C@@H]1[C@@H](/C=C/[C@@H](O)CCc2ccccc2)[C@H](O)C[C@@H]1O [Bimatoprost, bimatoprost]
Log P [1]: 2.65
Intrinsic solubility [2]: 50 µg/mL
